# Experimental data reported in patent publication US20080105961A1, “Ligands of the Molecule Fit (Agt-121) and their Pharmaceutical Use” (priority 2004, published 2008).
# Marks after values point to notes of the source that are not given here.
# Tests used:
# [1] = system: FIT mRNA; test: Metabolic heat production by indirect calorimetry (FIG. 1); assay type: in vivo, Sprague Dawley rats; conditions: Sprague Dawley rats, after three days of treatment
# Excerpt: FIG. 1 is a graphical representation of metabolic heat production in Sprague Dawley rats after three days of FIT antisense-treatment compared to jumbled ad libitum fed and jumbled pair fed rats. *p<0.05 pair fed compared to jumbled group, #p<0.05 pair fed compared to FIT antisense-treated group, ̂p<0.05 compared to both jumbled and FIT antisense-treated groups. Data are mean ±SEM.
# To further dissect the nature of the inability to reduce TEE levels after FIT antisense treatment, metabolic heat production was measured by indirect calorimetry.
# [2] = system: FIT mRNA; test: ICV infusion of FIT antisense ODN in Sprague Dawley rats: food intake and body weight; assay type: in vivo
# Description: To confirm the appetite-suppressing and weight-reducing effects of central FIT suppression in an animal model other than P. obesus, the inventors performed the same experiments in Sprague Dawley rats. Male, 12 week old Sprague Dawley rats were infused with either saline, FIT antisense ODN, or jumbled ODN at 24 μg/day for four days. The sequence of the FIT antisense ODN and the jumbled ODN are the same as in Example 2 above.
# [3] = target: T1, MC4R (Rattus norvegicus, UniProt P70596); test: Feeding response to MT II after ODN or saline infusion; assay type: in vivo, Sprague Dawley rats; conditions: mean ± SEM
# T1 construct: from tissue; host or cells: living Sprague Dawley rats (brain)
# Description: To further investigate this relationship, antisense suppression of FIT in Sprague Dawley rats was again performed and these animals' responses to administration of the α-MSH analog MT II, a synthetic agonist of the MC4R and known suppressor of feeding. MT II effects on food intake and body weight in saline and jumbled ODN-treated control rats, as well as in FIT antisense-treated rats was measured.
# [4] = system: FIT mRNA; test: Hypothalamic FIT gene expression by semi-quantitative RT-PCR in ICV antisense-treated rats; assay type: in vivo, Sprague Dawley rats; conditions: hypothalamus
# Description: To confirm endogenous suppression of FIT in antisense-treated Sprague Dawley rats, FIT mRNA in the hypothalamus of these animals was measured.
# [5] = system: melanocortin receptor; test: Feeding response to ICV injection of SHU9119 after three days of ODN or saline infusion; assay type: in vivo, Sprague Dawley rats
# Excerpt: To further analyse the link between FIT and the melanocortin system, the feeding response of Sprague Dawley rats to an ICV injection of SHU9119, a melanocortin receptor antagonist and known feeding stimulator was investigated. After three days of FIT antisense treatment, jumbled oligonucleotide or saline infusion, responses were compared to rats receiving an ICV injection of saline vehicle rather than SHU9119.
# [6] = system: FIT mRNA; test: ICV infusion of FIT antisense ODN in Psammomys obesus: food intake and body weight; assay type: in vivo
# Description: To further investigate the orexigenic properties of FIT intracerebroventricular (ICV) antisense suppression of FIT was performed. This involved the infusion of FIT antisense oligonucleotides (ODNs) directly into the lateral ventricle space of the brain to suppress endogenous FIT mRNA levels. The effects of this treatment on food intake and body weight were measured and compared to control animals infused with a jumbled sequence ODN, or saline alone. 18 week old, male, lean, normal glucose tolerant (nGT) P. obesus animals were utilised for this study and infused with either saline, FIT antisense ODN, or jumbled ODN at 24 μg/day for four days. The sequence of the FIT antisense ODN was 5′-mu*mg*mg*mc*ma*g*a*a*t*t*g*c*a*mu*mu*mc*mc*mu*-3′, and the jumbled ODN 5′-mc*mg*mc*ma*mc*t*t*a*g*c*t*a*c*mu*mu*mg*mc*mu-3′, where m indicates the presence of a 2′O-Methyl-modified base, and * indicates a phosphorothioate linkage.
# [7] = system: FIT mRNA; test: Pair-feeding study with indirect calorimetry (24 h): body weight, food intake, total energy expenditure; assay type: in vivo, Sprague Dawley rats
# Description: To investigate the mechanism of weight loss after FIT antisense treatment, a group of Sprague Dawley rats were pair fed to the average daily food intake levels of FIT antisense-treated rats, and indirect calorimetry (24 h) was performed before and after FIT antisense or jumbled ODN ICV infusion.
# Total energy expenditure (TEE) was calculated from measurements of oxygen consumption and carbon dioxide production using indirect calorimetry (Ferrannini, 1988). Due to differences in body weight between the three groups of rats, TEE levels were calculated relative to whole body mass of the animals. […] FIT antisense-treated rats therefore have an inappropriately high level of energy expenditure for their body weight.
# [8] = ICV 24 μg/day, day 1, mean ± SEM
# [9] = ICV 24 μg/day, day 2, mean ± SEM
# [10] = ICV 24 μg/day, day 3, mean ± SEM
# [11] = ICV 24 μg/day, day 4, mean ± SEM
# [12] = baseline body weight, mean ± SEM
# [13] = change compared to day 0, mean ± SEM
# [14] = not pair fed (jumbled group ad libitum fed), mean ± SEM
# T1 sequence (P70596 whole entry, the tested form may be a part): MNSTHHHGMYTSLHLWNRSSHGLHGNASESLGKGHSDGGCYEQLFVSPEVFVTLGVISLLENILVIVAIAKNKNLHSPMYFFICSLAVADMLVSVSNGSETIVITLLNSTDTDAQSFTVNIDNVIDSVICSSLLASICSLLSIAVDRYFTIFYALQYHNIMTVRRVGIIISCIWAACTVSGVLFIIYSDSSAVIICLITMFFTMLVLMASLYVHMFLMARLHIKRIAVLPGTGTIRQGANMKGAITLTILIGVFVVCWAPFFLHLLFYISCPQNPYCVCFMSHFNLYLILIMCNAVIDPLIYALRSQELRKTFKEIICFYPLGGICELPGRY
substance,measurement,setting,value
5′-mu*mg*mg*mc*ma*g*a*a*t*t*g*c*a*mu*mu*mc*mc*mu*-3′ [FIT antisense],metabolic heat production,[1],inability to reduce heat production
same,"Cumulative food intake, Day 1 Food",[2]; [8],"8.6 ± 1.6^a,b g"
same,"Cumulative food intake, Day 2 Food",[2]; [9],"23.4 ± 2.6^a,b g"
same,"Cumulative food intake, Day 3 Food",[2]; [10],"38.3 ± 3.6^a,b g"
same,"Cumulative food intake, Day 4 Food",[2]; [11],"55.0 ± 4.9^a,b g"
same,Day 1 BW,"[2]; ICV 24 μg/day, mean ± SEM",425 ± 37 g
same,Day 2 BW,"[2]; ICV 24 μg/day, mean ± SEM",415 ± 37 g
same,Day 3 BW,"[2]; ICV 24 μg/day, mean ± SEM",410 ± 38^a g
same,Day 4 BW,"[2]; ICV 24 μg/day, mean ± SEM",408 ± 37^a g
same,Day 0 BW,[2]; [12],444 ± 37 g
same,Day 1 ΔBW,[2]; [13],−19.6 ± 2.9^b g
same,Day 2 ΔBW,[2]; [13],"−28.8 ± 4.1^a,b g"
same,Day 3 ΔBW,[2]; [13],"−34.4 ± 4.1^a,b g"
same,Day 4 ΔBW,[2]; [13],"−36.6 ± 6.7^a,b g"
same,Δ FI,[3]; 24 hr food intake post minus pre injection,−0.01 ± 0.01^c g/g BW
same,24 hr FI post injection,[3]; food intake after MT II or vehicle injection,0.03 ± 0.01 g/g BW
same,24 hr FI pre injection,"[3]; food intake, during ICV infusion, before MT II or vehicle injection",0.04 ± 0.01^d g/g BW
same,FIT gene expression,"[4]; ICV-treated Sprague Dawley rats, mean ± SEM",6.6 ± 1.0^a arbitrary units
same,FIT gene expression suppressed compared to jumbled-treated rats,[4]; Sprague Dawley rats,20%
same,FIT gene expression suppressed compared to saline-treated rats,[4]; Sprague Dawley rats,37%
same,Δ FI,"[5]; 48 hr food intake post minus pre injection, mean ± SEM",0.02 ± 0.01 g/g BW
same,48 hr FI post injection,"[5]; food intake relative to body weight, after ICV SHU9119 or vehicle injection, mean ± SEM","0.09 ± 0.01^b,d g/g BW"
same,48 hr FI pre injection,"[5]; food intake relative to body weight, during ICV infusion, before SHU9119 or vehicle injection, mean ± SEM",0.07 ± 0.01^b g/g BW
same,feeding response after SHU9119 injection compared to jumbled-treated or saline-treated rats,[5]; relative to body weight,significantly increased
same,"Cumulative food intake, Day 1 Food",[6]; [8],6.5 ± 1.6^a g
same,"Cumulative food intake, Day 2 Food",[6]; [9],12.3 ± 2.9^a g
same,"Cumulative food intake, Day 3 Food",[6]; [10],18.9 ± 3.9^a g
same,"Cumulative food intake, Day 4 Food",[6]; [11],"27.4 ± 4.4^a,b g"
same,Day 1 BW,"[6]; ICV 24 μg/day, mean ± SEM",195 ± 7 g
same,Day 2 BW,"[6]; ICV 24 μg/day, mean ± SEM",194 ± 8 g
same,Day 3 BW,"[6]; ICV 24 μg/day, mean ± SEM",192 ± 7 g
same,Day 4 BW,"[6]; ICV 24 μg/day, mean ± SEM",190 ± 7 g
same,cumulative food intake compared to jumbled oligonucleotide-infused and saline-treated control animals,"[6]; ICV, after four days of treatment",significantly reduced
same,Day 0 BW,[6]; [12],199 ± 7 g
same,Day 1 ΔBW,[6]; [13],−4.5 ± 0.7^a g
same,Day 2 ΔBW,[6]; [13],−5.7 ± 2.1^a g
same,Day 3 ΔBW,[6]; [13],−7.7 ± 1.8^a g
same,Day 4 ΔBW,[6]; [13],"−9.2 ± 1.5^a,b g"
same,ability to reduce TEE levels,"[7]; Sprague Dawley rats, TEE relative to whole body mass",unable to significantly reduce
same,Day 0 BW,"[7]; not pair fed (jumbled group ad libitum fed), baseline, mean ± SEM",408 ± 13 g
same,Day 4 BW,[7]; [14],"338 ± 12^a,c g"
same,Food Intake,[7]; [14],36.4 ± 11.2^a g
same,Δ BW,[7]; [14],"−70.0 ± 8.6^a,b g"
same,Δ TEE,"[7]; not pair fed, mean ± SEM",-67 ± 25 kJ/day/kg
same,Post TEE,"[7]; not pair fed, total energy expenditure after ICV infusion, mean ± SEM",525 ± 22 kJ/day/kg
same,Pre TEE,"[7]; not pair fed, total energy expenditure before ICV infusion, mean ± SEM",592 ± 30 kJ/day/kg
